Results: patent publication US10174060B2, “Process for purifying monooctylin trichloride” (CHEMTURA CORPORATION, priority 2014, dated 2019)

Assays:
[1] = cited from earlier work
[2] = Extraction of mono-n-octyltin trichloride from organic phase into aqueous hydrochloric acid phase, dependence on chloride concentration (Example 5); format: physicochemical; settings: stepwise dilution with deionized water
Method: 20.3 g of mono-n-octyltin trichloride, 3.9 g of di-n-butyl ether and 9.5 g of n-heptane were mixed to give of clear and homogeneous solution. 8.6 g (7.4 mL) of a 32% aqueous HCl solution were added. The mixture was stirred for ca. 10 minutes, and then transferred into a graduated glass cylinder. 2 phases appeared; they were allowed to settle.
Portions of deionized water were added stepwise to the system, and the volume changes of organic and aqueous phases were noted. Volume decrease of the organic phase indicates extraction of monooctyltin into the aqueous phase.

[3] = Extraction of mono-n-octyltin trichloride with aqueous sodium chloride phase (Example 7); format: physicochemical; settings: 16 mL organic mixture, 2.5 g saturated NaCl solution plus 5 g deionized water, 45° C.
Method: 10.15 g of mono-n-octyltin trichloride, 1.95 g of di-n-butyl ether and 4.75 g of n-heptane were mixed to give of clear and homogeneous solution. […] 2.5 g of a saturated NaCl solution was were added. The mixture was stirred for ca. 10 minutes, and then transferred into a graduated glass cylinder. Phase separation could not be observed, because a suspension had formed. When further 5 g of deionized water were added and the mixture was heated to 45° C., 2 phases appeared. When they had settled, it became visible, that the volume of the organic phase was reduced from 16 mL to ca. 8 mL, indicating extraction of monooctyltin trichloride into the aqueous phase. Upon cooling to room temperature, the lower aqueous phase solidified.

[4] = Extraction of mono-n-octyltin trichloride from organic phase into aqueous aluminum chloride phase, dependence on chloride concentration (Example 4); format: physicochemical; settings: stepwise dilution with deionized water
Method: A mixture was prepared, consisting by weight of 55.7% mono-n-octyltin trichloride, 10.7% di-n-butyl ether, 26.2% n-heptane, 7.3% AlCl3. 10 g of this mixture were transferred into a graduated glass cylinder.
Portions of deionized water were added stepwise to the system, and the volume changes of organic and aqueous phase were noted. Volume decrease of the organic phase indicates extraction of monooctyltin into the aqueous phase.

[5] = Extraction of mono-n-octyltin trichloride into aqueous aluminum chloride phase, dependence on temperature (Example 6); format: physicochemical; settings: 30 minutes settling, 20 g mixture (18.5 mL) plus 8.4 g deionized water
Method: A mixture was prepared, consisting by weight of 55.7% mono-n-octyltin trichloride, 10.7% di-n-butyl ether, 26.2% n-heptane, 7.3% AlCl3. To 20 g of this mixture (having a volume of 18.5 mL), 8.4 g of deionized water were added under stirring, and the resulting mixture was placed into a graduated glass cylinder.
The temperature in the glass cylinder was adjusted to 20° C., and the phases were allowed to settle and separate for 30 minutes. The resulting volume of the organic phase was 8 mL.
Subsequently, the temperature in the glass cylinder was adjusted to 40° C., and the phases were allowed to settle and separate for 30 minutes. The resulting volume of the organic phase was 10 mL.
Subsequently, the temperature in the glass cylinder was adjusted to 60° C., and the phases were allowed to settle and separate for 30 minutes. The resulting volume of the organic phase was 14 mL.

Row | SMILES | solubility in water [1] | HCl concentration at which extraction becomes particularly efficient [2] | volume of the organic phase after extraction [3] | aqueous aluminum chloride concentration at which extraction becomes particularly efficient [4] [%] | volume of the organic phase ([5]; 20° C.) [mL] | volume of the organic phase ([5]; 40° C.) [mL] | volume of the organic phase ([5]; 60° C.) [mL]
1 | CCCCCCC[CH2][Sn]([Cl])([Cl])[CH2]CCCCCCC [dioctyltin dichloride] | practically insoluble |  |  |  |  |  | 
2 | CCCCCCC[CH2][Sn]([Cl])([Cl])[Cl] [mono-n-octyltin trichloride] | practically insoluble | approx. 16% | ca. 8 mL | ≤ 17 | 8 | 10 | 14
3 | CCC[CH2][Sn]([Cl])([Cl])[Cl] [monobutyltin trichloride] | miscible |  |  |  |  |  | 
4 | CCCCCCC[CH2][Sn]([Cl])([CH2]CCCCCCC)[CH2]CCCCCCC [trioctyltin chloride] | practically insoluble |  |  |  |  |  | 
